Data taken from US20100120763A1, “IMIDAZO[5,1-C][1,2,4]BENZOTRIAZINE DERIVATIVES AS INHIBITORS OF PHOSPHODIESTERASES” (priority 2008, published 2010).

Experiments:
PDE10A = biological target: T1, PDE10A (Homo sapiens, UniProt Q9Y233); assay: Inhibition of recombinant PDE10A (baculovirus/SF21 system), [3H]-cAMP SPA; type: biochemical; conditions: recombinant PDE10A1, cytosolic; 0.1 μM [3H]-cAMP, 37° C., 30 minutes; read-out: PDE10A IC50
T1 construct: made in house; host or cells: SF21 insect cells (baculovirus)
T1 sequence (Q9Y233 1-779 isoform Q9Y233-1): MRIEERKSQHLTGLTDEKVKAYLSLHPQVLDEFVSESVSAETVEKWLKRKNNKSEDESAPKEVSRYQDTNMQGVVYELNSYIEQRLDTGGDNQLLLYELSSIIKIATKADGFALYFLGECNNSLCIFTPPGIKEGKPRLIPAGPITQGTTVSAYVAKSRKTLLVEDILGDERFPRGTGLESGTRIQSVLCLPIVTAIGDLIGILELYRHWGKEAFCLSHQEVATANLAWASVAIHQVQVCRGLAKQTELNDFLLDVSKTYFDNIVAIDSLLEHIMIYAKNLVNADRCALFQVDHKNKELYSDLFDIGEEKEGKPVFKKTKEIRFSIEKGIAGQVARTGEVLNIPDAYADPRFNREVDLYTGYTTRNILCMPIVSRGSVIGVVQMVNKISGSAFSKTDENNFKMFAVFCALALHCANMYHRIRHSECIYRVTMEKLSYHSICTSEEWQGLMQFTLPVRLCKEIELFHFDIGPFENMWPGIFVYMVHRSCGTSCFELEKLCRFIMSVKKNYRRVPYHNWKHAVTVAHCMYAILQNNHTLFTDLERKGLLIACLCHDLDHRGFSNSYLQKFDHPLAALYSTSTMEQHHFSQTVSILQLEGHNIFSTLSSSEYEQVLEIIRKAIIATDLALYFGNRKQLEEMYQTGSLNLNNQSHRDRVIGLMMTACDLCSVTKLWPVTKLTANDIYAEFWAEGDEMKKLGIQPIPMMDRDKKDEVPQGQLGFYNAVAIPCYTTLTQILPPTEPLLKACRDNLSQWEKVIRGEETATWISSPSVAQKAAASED

PDE2A = biological target: T2, PDE2A (Homo sapiens, UniProt O00408); assay: Inhibition of recombinant PDE2A (expressed in baculovirus/SF21-cells), [3H]-cAMP SPA; type: biochemical
T2 construct: made in house; host or cells: SF21 insect cells (baculovirus)
T2 sequence (O00408 whole entry): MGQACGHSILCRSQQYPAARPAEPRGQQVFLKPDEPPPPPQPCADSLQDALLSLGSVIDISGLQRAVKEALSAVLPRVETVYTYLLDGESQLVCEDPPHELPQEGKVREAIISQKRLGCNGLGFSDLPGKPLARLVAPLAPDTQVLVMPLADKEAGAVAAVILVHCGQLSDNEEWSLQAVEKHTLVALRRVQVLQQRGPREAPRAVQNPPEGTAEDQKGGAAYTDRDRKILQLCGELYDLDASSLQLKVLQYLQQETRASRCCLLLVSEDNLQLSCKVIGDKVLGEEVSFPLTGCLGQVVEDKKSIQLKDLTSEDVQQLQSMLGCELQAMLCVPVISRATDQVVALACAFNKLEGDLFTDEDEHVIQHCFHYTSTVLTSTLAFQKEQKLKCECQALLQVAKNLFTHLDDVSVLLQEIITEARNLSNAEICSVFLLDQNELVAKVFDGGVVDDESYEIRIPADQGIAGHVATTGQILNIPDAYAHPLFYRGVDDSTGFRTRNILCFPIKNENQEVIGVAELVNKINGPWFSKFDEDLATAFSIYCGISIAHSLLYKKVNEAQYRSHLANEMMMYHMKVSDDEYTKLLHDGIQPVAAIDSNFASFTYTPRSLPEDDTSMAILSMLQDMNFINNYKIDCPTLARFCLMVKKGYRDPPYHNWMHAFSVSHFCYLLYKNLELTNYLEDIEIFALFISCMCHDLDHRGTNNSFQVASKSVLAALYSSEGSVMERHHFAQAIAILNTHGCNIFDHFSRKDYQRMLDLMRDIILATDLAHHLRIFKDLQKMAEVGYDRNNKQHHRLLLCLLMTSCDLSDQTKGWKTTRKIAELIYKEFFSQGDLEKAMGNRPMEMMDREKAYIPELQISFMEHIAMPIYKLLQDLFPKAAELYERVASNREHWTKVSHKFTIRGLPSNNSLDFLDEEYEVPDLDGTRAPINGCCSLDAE
In short: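 Membrane fraction of baculovirus/SF21-expressed PDE2A was incubated 30 min at 37° C in Tris-HCl/MgCl2 pH 7.4 with 0.5 μM [3H]-cAMP and 1000 nM cGMP as activator. Product was detected by SPA scintillation. IC50 used a Hill-plot 2-parameter model.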

SMILES | IC50 (PDE10A) [nM] | IC50 (PDE2A) [nM] | melting point [°C]
Cc1ncccc1-c1nc(C)c2nnc3ccc(F)cc3n12 [Example 12, 8-fluoro-3-methyl-1-(2-methylpyridin-3-yl)benzo[e]imidazo[5,1-c][1,2,4]triazine] | 780 | 187 | 207 to 210
Cc1nc(-c2ccccc2Cl)n2c1nnc1ccc(F)cc12 [Example 13, 1-(2-chlorophenyl)-8-fluoro-3-methylbenzo[e]imidazo[5,1-c][1,2,4]triazine] | 86 | 32.6 | 189 to 192
Cc1nc(-c2cccc(Cl)c2Cl)n2c1nnc1ccc(F)cc12 [Example 14, 1-(2,3-dichlorophenyl)-8-fluoro-3-methylbenzo[e]imidazo[5,1-c][1,2,4]triazine] | 308 | 371 | 193 to 196
Cc1nc(-c2ccnn2C)n2c1nnc1ccc(F)cc12 [Example 15, 8-fluoro-3-methyl-1-(1-methyl-1H-pyrazol-5-yl)benzo[e]imidazo[5,1-c][1,2,4]triazine] | > 5000 | > 1000 | 217 to 220
COc1ccccc1-c1nc(C)c2nnc3ccc(F)cc3n12 [Example 16, 8-fluoro-1-(2-methoxyphenyl)-3-methylbenzo[e]imidazo[5,1-c][1,2,4]triazine] | 456 | 351 | 196 to 198
Cc1ccccc1-c1nc(C)c2nnc3ccc(F)cc3n12 [Example 17, 8-fluoro-3-methyl-1-o-tolylbenzo[e]imidazo[5,1-c][1,2,4]triazine] | 196 | 122 | 192 to 195
COc1ccc(Cl)c(-c2nc(C)c3nnc4ccc(F)cc4n23)c1 [Example 18, 1-(2-chloro-5-methoxyphenyl)-8-fluoro-3-methylbenzo[e]imidazo[5,1-c][1,2,4]triazine] | 183 | 20.1 | 190 to 192
Cc1nc(-c2cnccc2Cl)n2c1nnc1ccc(F)cc12 [Example 19, 1-(4-chloropyridin-3-yl)-8-fluoro-3-methylbenzo[e]imidazo[5,1-c][1,2,4]triazine] | 2030 | 1360 | 141 to 144
Cc1nc(-c2cc(OC(C)C)ccc2F)n2c1nnc1ccc(F)cc12 [Example 20, 8-fluoro-1-(2-fluoro-5-isopropoxyphenyl)-3-methylbenzo[e]imidazo[5,1-c][1,2,4]triazine] | 2290 | 473 | 148 to 150.5
Cc1nc(-c2cc(C(F)(F)F)ccc2F)n2c1nnc1ccc(F)cc12 [Example 21, 8-fluoro-1-(2-fluoro-5-(trifluoromethyl)phenyl)-3-methylbenzo[e]imidazo[5,1-c][1,2,4]triazine] | > 1000 | 912 | 176 to 179
CCCCOc1ccc(F)c(-c2nc(C)c3nnc4ccc(F)cc4n23)c1 [Example 22, 1-(5-butoxy-2-fluorophenyl)-8-fluoro-3-methylbenzo[e]imidazo[5,1-c][1,2,4]triazine] | > 500 | 37.7 | 148 to 151
CCCOc1ccc(F)c(-c2nc(C)c3nnc4ccc(F)cc4n23)c1 [Example 23, 8-fluoro-1-(2-fluoro-5-propoxyphenyl)-3-methylbenzo[e]imidazo[5,1-c][1,2,4]triazine] | 1540 | 59.1 | 153 to 155
CCOc1ccc(F)c(-c2nc(C)c3nnc4ccc(F)cc4n23)c1 [Example 24, 1-(5-ethoxy-2-fluorophenyl)-8-fluoro-3-methylbenzo[e]imidazo[5,1-c][1,2,4]triazine] | > 500 | 240 | 189 to 191
Cc1ncccc1-c1nc(C)c2nnc3cc(F)ccc3n12 [Example 25, 7-fluoro-3-methyl-1-(2-methylpyridin-3-yl)benzo[e]imidazo[5,1-c][1,2,4]triazine] | 1490 | 341 | 169 to 172
COc1ccccc1-c1nc(C)c2nnc3cc(F)ccc3n12 [Example 26, 7-fluoro-1-(2-methoxyphenyl)-3-methylbenzo[e]imidazo[5,1-c][1,2,4]triazine] | 635 | 500 | 249 to 251
Cc1cc(F)ccc1-c1nc(C)c2nnc3cc(F)ccc3n12 [Example 27, 7-fluoro-1-(4-fluoro-2-methylphenyl)-3-methylbenzo[e]imidazo[5,1-c][1,2,4]triazine] | 911 | 298 | 181 to 184
Cc1ccccc1-c1nc(C)c2nnc3cc(F)ccc3n12 [Example 28, 7-fluoro-3-methyl-1-o-tolylbenzo[e]imidazo[5,1-c][1,2,4]triazine] | 359 | 122 | 149 to 152
COc1ccc(Cl)c(-c2nc(C)c3nnc4cc(F)ccc4n23)c1 [Example 29, 1-(2-chloro-5-methoxyphenyl)-7-fluoro-3-methylbenzo[e]imidazo[5,1-c][1,2,4]triazine] | 425 | 35.3 | 158 to 161.5
Cc1nc(-c2cc(C(F)(F)F)ccc2F)n2c1nnc1cc(F)ccc12 [Example 30, 7-fluoro-1-(2-fluoro-5-(trifluoromethyl)phenyl)-3-methylbenzo[e]imidazo[5,1-c][1,2,4]triazine] | > 1000 | 1790 | 205 to 206
Cc1nc(-c2cc(OC(C)C)ccc2F)n2c1nnc1cc(F)ccc12 [Example 31, 7-fluoro-1-(2-fluoro-5-isopropoxyphenyl)-3-methylbenzo[e]imidazo[5,1-c][1,2,4]triazine] | 5340 | 551 | 133 to 136
COc1ccc2c(c1)nnc1c(C)nc(-c3ccccc3Cl)n12 [Example 34, 1-(2-chlorophenyl)-7-methoxy-3-methylbenzo[e]imidazo[5,1-c][1,2,4]triazine] | 75.2 | 26.7 | 163 to 165
COc1ccc2c(c1)nnc1c(C)ncn12 [Example 35, 7-methoxy-3-methylbenzo[e]imidazo[5,1-c][1,2,4]triazine] | > 5000 | > 5000 | 212 to 215

Results, then the compound that gave them:

IC50 (PDE10A) [nM] | IC50 (PDE2A) [nM] | melting point [°C] | SMILES
351 | 73.4 | 202 to 205 | COc1ccc2c(c1)nnc1c(C)nc(-c3cccnc3C)n12 [Example 36, 7-methoxy-3-methyl-1(2-methylpyridin-3-yl)benzo[e]imidazo[5,1-c][1,2,4]triazine]
77.2 | 5.31 | 188 to 190 | Cc1nc(-c2cc(Cl)ccc2Cl)n2c1nnc1ccc(Cl)cc12 [Example 37, 8-chloro-1-(2,5-dichlorophenyl)-3-methylbenzo[e]imidazo[5,1-c][1,2,4]triazine]
207 | 41.4 | 235 to 236 | Cc1ncccc1-c1nc(C)c2nnc3ccc(Cl)cc3n12 [Example 38, 8-chloro-3-methyl-1-(2-methylpyridin-3-yl)benzo[e]imidazo[5,1-c][1,2,4]triazine]
3940 | 1410 | 230 to 231 | Cc1nc(-c2ccnn2C)n2c1nnc1ccc(Cl)cc12 [Example 40, 8-chloro-3-methyl-1-(1-methyl-1H-pyrazol-5-yl)benzo[e]imidazo[5,1-c][1,2,4]triazine]
3120 | > 1000 | 249 to 251 | Cc1nc(-c2ccccc2C(N)=O)n2c1nnc1ccc(Cl)cc12 [Example 41, 2-(8-chloro-3-methylbenzo[e]imidazo[5,1-c][1,2,4]triazin-1-yl)benzamide]
> 10000 | > 10000 | 210 | Cc1ncn2c1nnc1ccc(Cl)cc12 [Example 42, 8-chloro-3-methylbenzo[e]imidazo[5,1-c][1,2,4]triazine]
> 500 | 233 | 174 to 177 | Cc1nc(-c2cc(OC(C)C)ccc2F)n2c1nnc1ccc(Cl)cc12 [Example 43, 8-chloro-1-(2-fluoro-5-isopropoxyphenyl)-3-methylbenzo[e]imidazo[5,1-c][1,2,4]triazine]
1550 | 121 | 204 to 207 | COc1ccc2nnc3c(C)nc(-c4cc(OC(C)C)ccc4F)n3c2c1 [Example 44, 1-(2-fluoro-5-isopropoxyphenyl)-8-methoxy-3-methylbenzo[e]imidazo[5,1-c][1,2,4]triazine]
71.2 | 2190 | 199 to 202 | COc1cc2nnc3c(C)nc(-c4ccccn4)n3c2cc1OC [Example 50, 7,8-dimethoxy-3-methyl-1-(pyridin-2-yl)benzo[e]imidazo[5,1-c][1,2,4]triazine]
6.55 | 1.28 | 172 to 175 | Cc1nc(-c2ccccc2Cl)n2c1nnc1ccc(-c3ccccc3Cl)cc12 [Example 172, 1,8-Bis-(2-chloro-phenyl)-3-methyl-imidazo[5,1-c][1,2,4]benzotriazine]
57.6 | 61.5 | 207 to 210 | Cc1nc(-c2cccc(Cl)c2Cl)n2c1nnc1ccc(-c3cccc(Cl)c3Cl)cc12 [Example 173, 1,8-Bis-(2,3-dichloro-phenyl)-3-methyl-imidazo[5,1-c][1,2,4]benzotriazine]
41.1 | 3.55 | 134 to 136 | CCCOc1ccc(F)c(-c2ccc3nnc4c(C)nc(-c5cc(OCCC)ccc5F)n4c3c2)c1 [Example 174, 1,8-Bis-(2-fluoro-5-propoxy-phenyl)-3-methyl-imidazo[5,1-c][1,2,4]benzotriazine]
